Laboratory results reported in ChEMBL document CHEMBL4190326, “Novel Gomisin B analogues as potential cytotoxic agents: Design, synthesis, biological evaluation and docking studies” (Eur J Med Chem, 2017).

Experiments:
IMR-32 = assay: Cytotoxicity against human IMR32 cells assessed as reduction in cell viability measured after 48 hrs by SRB assay; assay type: functional, cell-based; conditions: IMR-32, 48 h
A549 = assay: Cytotoxicity against human A549 cells assessed as reduction in cell viability measured after 48 hrs by SRB assay; assay type: functional, cell-based; conditions: A549, 48 h
[1] = Selectivity index, ratio of IC50 for HEK293 cells to IC50 for human DU145 cells; assay type: toxicity; conditions: HEK293 cells versus DU145 cells, read-out: Ratio IC50
HEK293 = assay: Cytotoxicity against HEK293 cells assessed as reduction in cell viability measured after 48 hrs by SRB assay; assay type: cell-based; conditions: Homo sapiens, HEK293, 48 h
PANC-1 = assay: Cytotoxicity against human PANC1 cells assessed as reduction in cell viability measured after 48 hrs by SRB assay; assay type: functional, cell-based; conditions: PANC-1, 48 h
MDA-MB-231 = assay: Cytotoxicity against human MDA-MB-231 cells assessed as reduction in cell viability measured after 48 hrs by SRB assay; assay type: functional, cell-based; conditions: MDA-MB-231, 48 h
DU-145 = assay: Cytotoxicity against human DU145 cells assessed as reduction in cell viability measured after 48 hrs by SRB assay; assay type: functional, cell-based; conditions: DU-145, 48 h
SiHa = assay: Cytotoxicity against human SiHa cells assessed as reduction in cell viability measured after 48 hrs by SRB assay; assay type: functional, cell-based

SMILES | IC50 (IMR-32) [µM] | IC50 (A549) [µM] | selectivity ratio [1] | IC50 (HEK293) [µM] | IC50 (PANC-1) [µM] | IC50 (MDA-MB-231) [µM] | IC50 (DU-145) [µM] | IC50 (SiHa) [µM]
C/C=C(/C)C(=O)O[C@H]1c2cc(OC)c(OC)c(OC)c2-c2c(cc3c(c2OC)OCO3)C[C@H](C)[C@@]1(C)O [ARISANSCHININ N] | 66.8 | 55.1 | 1.6 | 52 | 53.6 | 60.5 | 64.7 | 51.2
COc1cc(-n2cc(CO/N=C3\c4cc(OC)c(OC)c(OC)c4-c4c(cc5c(c4OC)OCO5)C[C@H](C)[C@@]3(C)O)nn2)cc(OC)c1Cl | 79.1 | 94.2 | 1.1 | > 100 | 86.4 | 73.2 | 94.7 | 83.2
COc1cccc2c1C(=O)c1c(O)c3c(c(O)c1C2=O)C[C@@](O)(C(=O)CO)C[C@@H]3O[C@H]1C[C@H](N)[C@H](O)[C@H](C)O1 [DOXORUBICIN] | 2.3 | 1.6 |  | 10 | 1.9 |  | 2.4 | 1.5
COc1cc2c(c(OC)c1OC)-c1c(cc3c(c1OC)OCO3)C[C@H](C)[C@@](C)(O)/C2=N/OCc1cn(-c2cc([N+](=O)[O-])ccc2Cl)nn1 | 86.4 | 96.4 | 1.1 | > 100 | 93.4 | 85.7 | 95.1 | 94.5
COc1cc2c(c(OC)c1OC)-c1c(cc3c(c1OC)OCO3)C[C@H](C)[C@@](C)(O)C2=O | 72.3 | 94.8 | 1.2 | > 100 | 88.6 | 73.1 | 83.1 | 75.1
COc1cc2c(c(OC)c1OC)-c1c(cc3c(c1OC)OCO3)C[C@H](C)[C@@](C)(O)/C2=N/OCc1cn(-c2ccc(I)cc2)nn1 | 89.7 | 90.8 | 1.1 | > 100 | 83.4 | 76.8 | 89.4 | 76.4
COc1cc2c(c(OC)c1OC)-c1c(cc3c(c1OC)OCO3)C[C@H](C)[C@@](C)(O)/C2=N/OCc1cn(CC(=O)Nc2ccc(I)cc2Cl)nn1 | 81.6 | 97.5 | 1.01 | > 100 | 92.1 | 82.9 | 98.7 | 86.4
COc1cc2c(c(OC)c1OC)-c1c(cc3c(c1OC)OCO3)C[C@H](C)[C@@](C)(O)/C2=N/O | 81.4 | 96.4 | 1.05 | > 100 | 84.9 | 79.5 | 94.7 | 83.4
COc1cc2c(c(OC)c1OC)-c1c(cc3c(c1OC)OCO3)C[C@H](C)[C@@](C)(O)/C2=N/OCc1cn(-c2ccc(Cl)cc2)nn1 | 83.9 | > 100 | 1.01 | > 100 | 92.7 | 82.6 | 99.4 | 98.5
COc1cc2c(c(OC)c1OC)-c1c(cc3c(c1OC)OCO3)C[C@H](C)[C@@](C)(O)/C2=N/OCc1cn(CC(=O)Nc2ccccc2)nn1 | 86.3 | 93.7 | 1.1 | > 100 | 91.1 | 79.8 | 91.5 | 88.6
COc1cc2c(c(OC)c1OC)-c1c(cc3c(c1OC)OCO3)C[C@H](C)[C@@](C)(O)[C@H]2O | 86.7 | 94.2 | 1.14 | > 100 | 78.4 | 81.2 | 87.4 | 68.3
COc1ccc(OC)c(-n2cc(CO/N=C3\c4cc(OC)c(OC)c(OC)c4-c4c(cc5c(c4OC)OCO5)C[C@H](C)[C@@]3(C)O)nn2)c1 | 76.5 | 91.8 | 1.1 | > 100 | 81.2 | 73.8 | 86.7 | 74.3
COc1cc(OC)c(-n2cc(CO/N=C3\c4cc(OC)c(OC)c(OC)c4-c4c(cc5c(c4OC)OCO5)C[C@H](C)[C@@]3(C)O)nn2)cc1OC | 76.8 | 87.5 | 1.1 | > 100 | 76.8 | 72.8 | 86.2 | 69.5
COc1cc2c(c(OC)c1OC)-c1c(cc3c(c1OC)OCO3)C[C@H](C)[C@@](C)(O)/C2=N/OCc1cn(-c2ccccc2C#N)nn1 | 79.8 | 94.2 | 1.1 | > 100 | 87.3 | 71.1 | 92.7 | 86.4
COc1cccc(-n2cc(CO/N=C3\c4cc(OC)c(OC)c(OC)c4-c4c(cc5c(c4OC)OCO5)C[C@H](C)[C@@]3(C)O)nn2)c1 | 77.4 | 96.4 | 1.1 | > 100 | 98 | 82.1 | 95.8 | 92.1
CCc1ccc(-n2cc(CO/N=C3\c4cc(OC)c(OC)c(OC)c4-c4c(cc5c(c4OC)OCO5)C[C@H](C)[C@@]3(C)O)nn2)cc1 | 75.8 | 93.8 | 1.1 | > 100 | 83.4 | 79.1 | 91.7 | 89.7
COc1cc2c(c(OC)c1OC)-c1c(cc3c(c1OC)OCO3)C[C@H](C)[C@@](C)(O)/C2=N/OCc1cn(-c2ccc(C(C)=O)cc2)nn1 | 86.4 | 95.7 | 1.08 | > 100 | 80.3 | 70.8 | 92.4 | 71.1
C#CCO/N=C1\c2cc(OC)c(OC)c(OC)c2-c2c(cc3c(c2OC)OCO3)C[C@H](C)[C@@]1(C)O | 82.6 | 98.1 | 1.01 | > 100 | 97.2 | 80.4 | 99.5 | 96.1
COc1cc2c(c(OC)c1OC)-c1c(cc3c(c1OC)OCO3)C[C@H](C)[C@@](C)(O)/C2=N/OCc1cn(-c2cccc(C)c2Cl)nn1 | 78.3 | 85.6 | 1.1 | > 100 | 81.9 | 73.8 | 88.6 | 69.2
COc1cc2c(c(OC)c1OC)-c1c(cc3c(c1OC)OCO3)C[C@H](C)[C@@](C)(O)/C2=N/OCc1cn(-c2cccc([N+](=O)[O-])c2)nn1 | 86.1 | 96.1 | 1 | > 100 | 95.7 | 83.7 | 98.4 | 96.5
COc1cc2c(c(OC)c1OC)-c1c(cc3c(c1OC)OCO3)C[C@H](C)[C@@](C)(O)/C2=N/OCc1cn(-c2cc(C)cc(C)c2)nn1 | 79.8 | 91.7 | 1.1 | > 100 | 89.3 | 81.4 | 90.6 | 85.1
